In PubChem BioAssay AID1919002 (Molecular Pharmacology Branch, DTP, NCI, 2023):
“And” between values parts separate entries of the source, which are not always exact repeats. Equal values may be shown once.

Test system: 743489-274-T-PDC complex spheroid growth
Assay: Anticancer human tumor 743489-274-T-PDC patient-derived renal cell carcinoma cell line growth inhibition [AhR]
Conditions: for viability, T/C: stronger effect = lower value; active means viability on the fitted dose curve at most 10% of control; inactive means the rest
Excerpt: Multicellular complex tumor spheroid response to aryl hydrocarbon receptor antagonists in combination with a variety of drugs and investigational agents in selected tumor cell lines
The current study was undertaken to assess response to aryl hydrocarbon receptor antagonists in combination with standard-of-care drugs and investigational agents in solid tumor complex spheroid models. Complex spheroids include a stromal component modeled by human endothelial cells (HUVEC) and fibroblasts modeled by human mesenchymal stem cells (MSCs). The concentration ranges selected for each drug and investigational agent were based upon clinically achievable concentrations if the clinical Cmax of the agent was known.
Compounds. The drugs and investigational agents: BAY 2416964 (NSC825713), GNF351 (NSC835774), CH-223191 (NSC835775), CPI-455 (NSC825282), aza-TdCyd (NSC777586), decitabine (NSC127716), belinostat (NSC758774), entinostat (NSC756642), pevonedistat (NSC761192), tazemetostat (NSC777109), talazoparib (NSC765396), olaparib (NSC753686), selinexor (NSC780203), nedisertib (M3814, NSC802822), bortezomib (NSC756655), venetoclax (NSC766270), doxorubicin (NSC123127), elimusertib (BAY189344, NSC800525), ceralasertib (AZD6738, NSC777638), TAK-243 (NSC785004), alisertib (NSC759677), etoposide (NSC141540), topotecan (NSC609699), eribulin (NSC707389), gemcitabine (NSC613327), carboplatin (NSC241240), cisplatin (NSC119875), and SN-38 (NSC673596) were obtained from the National Cancer Institute (NCI) Developmental Therapeutics Program Chemical Repository (32). The FDA-approved anticancer drug set is available from the Developmental Therapeutics Program at https://dtp.cancer.gov/organization/dscb/obtaining/available plates.htm. […] The stock solutions were prepared in dimethyl sulfoxide (DMSO, Sigma-Aldrich, St. Louis, MO, cat. D2650), except for the platinum compounds which were prepared in saline (Quality Biological, Gaithersburg, MD, cat. 114-055-101), at 800-fold the tested concentration and stored at -70 degrees C prior to their use. All drugs and investigational agents were tested over a range starting from a high concentration at or near the clinical Cmax and decreasing in half-log increments. If the clinical Cmax for an agent had not been determined, the highest concentration tested was 10 microM (Table 1).
Cell Culture. All cells were maintained in an incubator at 37 degrees C and 5% CO2 with 95% humidity. The PDC lines were cultured according to standard operating procedures established by the NCI PDMR (https://pdmr.cancer.gov). Briefly, all PDCs were thawed and cultured in Matrigel-coated flasks prepared with a working solution of 1X Ham's F-12 nutrient mix, without supplementation (Invitrogen, Waltham, MA, cat. 11765054), 100 U/mL penicillin-streptomycin (Invitrogen, cat. 15140122), and 2.5% Matrigel (Corning Inc., Corning, NY, cat. 354248) for the first three passages. All PDCs were cultured in complete DMEM/F-12 media containing advanced DMEM/F-12 (Invitrogen, cat. 12634028), 4.9% defined fetal bovine serum, heat inactivated (HyClone Laboratories Inc., Logan, UT, cat. SH30070.03HI), 389 ng/mL hydrocortisone (Sigma-Aldrich, cat. H4001), 9.7 ng/mL human EGF recombinant protein (Invitrogen, cat. PHG0313), 23.4 microg/mL adenine (Sigma-Aldrich, cat. A2786), 97.3 U/mL penicillin-streptomycin (Invitrogen, cat. 15140122), 1.9 mM L-glutamine (Invitrogen, cat. 25030081), and 9.7 microM Y-27632 dihydrochloride (Tocris Bioscience, Bristol, United Kingdom, cat. 1254). The PDCs were cultured in complete DMEM/F12 media without 10 microM Y-27632 dihydrochloride for at least two passages prior to the screen. The established cell lines NCI-H1341 and […] were cultured in DMEM/F-12, HEPES (Invitrogen, cat. 11330032), 5% defined fetal bovine serum (HyClone Laboratories Inc., cat. SH30070.03), ITS premix universal culture supplement [insulin (5 microg/mL), transferrin (5 microg/mL), and selenious acid (5 ng/mL)] […]

[1] = curve of first compound, second compound 0.1 µM
[2] = curve of first compound, second compound 0.316 µM
[3] = curve of first compound, second compound 1 µM
[4] = curve of first compound, second compound 3.16 µM
[5] = curve of first compound, second compound 10 µM
[6] = second compound 0.1 µM, first compound 0.0316 µM
[7] = second compound 0.1 µM, first compound 0.1 µM
[8] = second compound 0.316 µM, first compound 0.0316 µM
[9] = second compound 0.316 µM, first compound 0.1 µM
[10] = second compound 1 µM, first compound 0.0316 µM
[11] = second compound 1 µM, first compound 0.1 µM
[12] = second compound 3.16 µM, first compound 0.0316 µM
[13] = second compound 3.16 µM, first compound 0.1 µM
[14] = second compound 10 µM, first compound 0.0316 µM
[15] = second compound 10 µM, first compound 0.1 µM
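Further: spheroids exposed to agents for 7 days before readout.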
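Wherever viability, T/C is given: 100% = DMSO vehicle control wells.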

Cn1ncnc1C1c2n[nH]c(=O)c3cc(F)cc(c23)NC1c1ccc(F)cc1 (configuration not stated) + Cc1ccccc1N=Nc1ccc(NC(=O)c2ccnn2C)c(C)c1
> 0.1 µM: IC50 [1] | IC50 [2] | IC50 [3] | IC50 [4] | IC50 [5]
inactive: viability, T/C (second compound 0.1 µM, first compound 0.000316 µM) 97.3% | viability, T/C (second compound 0.1 µM, first compound 0.001 µM) 106% | viability, T/C (second compound 0.1 µM, first compound 0.00316 µM) 101% | viability, T/C (second compound 0.1 µM, first compound 0.01 µM) 101% | viability, T/C [6] 103% | viability, T/C [7] 90.2% | viability, T/C (second compound 0.316 µM, first compound 0.000316 µM) 98.2% | viability, T/C (second compound 0.316 µM, first compound 0.001 µM) 107% | viability, T/C (second compound 0.316 µM, first compound 0.00316 µM) 89% | viability, T/C (second compound 0.316 µM, first compound 0.01 µM) 98.9% | viability, T/C [8] 97.8% | viability, T/C [9] 88.8% | viability, T/C (second compound 1 µM, first compound 0.000316 µM) 105% | viability, T/C (second compound 1 µM, first compound 0.001 µM) 92.1% | viability, T/C (second compound 1 µM, first compound 0.00316 µM) 100% | viability, T/C (second compound 1 µM, first compound 0.01 µM) 96.7% | viability, T/C [10] 106% | viability, T/C [11] 92.5% | viability, T/C (second compound 3.16 µM, first compound 0.000316 µM) 93.3% | viability, T/C (second compound 3.16 µM, first compound 0.001 µM) 106% | viability, T/C (second compound 3.16 µM, first compound 0.00316 µM) 97.7% | viability, T/C (second compound 3.16 µM, first compound 0.01 µM) 91% | viability, T/C [12] 94.1% | viability, T/C [13] 102% | viability, T/C (second compound 10 µM, first compound 0.000316 µM) 99.8% | viability, T/C (second compound 10 µM, first compound 0.001 µM) 101% | viability, T/C (second compound 10 µM, first compound 0.00316 µM) 103% | viability, T/C (second compound 10 µM, first compound 0.01 µM) 92.2% | viability, T/C [14] 89.4% | viability, T/C [15] 103%

CCN(c1cc(-c2ccc(CN3CCOCC3)cc2)cc(C(=O)NCc2c(C)cc(C)[nH]c2=O)c1C)C1CCOCC1
> 3 µM: IC50 (curve of compound)
inactive: viability, T/C (compound 0.00949 µM) 107% and 101% and 108% | viability, T/C (compound 0.03 µM) 102% and 103% and 122% | viability, T/C (compound 0.0949 µM) 102% and 86.6% and 107% | viability, T/C (compound 0.3 µM) 102% and 99.9% and 101% | viability, T/C (compound 0.949 µM) 94.9% and 104% and 108% | viability, T/C (compound 3 µM) 102% and 91% and 101%

COc1cc(C2c3cc4c(cc3C(OC3OC5COC(C)OC5C(O)C3O)C3COC(=O)C23)OCO4)cc(OC)c1O (configuration not stated) + Cc1cncc(-c2nc(NCCc3c[nH]c4ccccc34)c3ncn(C(C)C)c3n2)c1
> 10 µM: IC50 [1] | IC50 [2] | IC50 [3] | IC50 [4] | IC50 [5]
inactive: viability, T/C [6] 97.7% | viability, T/C [7] 88.2% | viability, T/C (second compound 0.1 µM, first compound 0.316 µM) 88% | viability, T/C (second compound 0.1 µM, first compound 1 µM) 96.8% | viability, T/C (second compound 0.1 µM, first compound 3.16 µM) 82.3% | viability, T/C (second compound 0.1 µM, first compound 10 µM) 74.6% | viability, T/C [8] 94.1% | viability, T/C [9] 82.6% | viability, T/C (second compound 0.316 µM, first compound 0.316 µM) 78.2% | viability, T/C (second compound 0.316 µM, first compound 1 µM) 80% | viability, T/C (second compound 0.316 µM, first compound 3.16 µM) 75.2% | viability, T/C (second compound 0.316 µM, first compound 10 µM) 78.5% | viability, T/C [10] 90.2% | viability, T/C [11] 87.6% | viability, T/C (second compound 1 µM, first compound 0.316 µM) 80.5% | viability, T/C (second compound 1 µM, first compound 1 µM) 78.1% | viability, T/C (second compound 1 µM, first compound 3.16 µM) 80.4% | viability, T/C (second compound 1 µM, first compound 10 µM) 80.8% | viability, T/C [12] 95.3% | viability, T/C [13] 87.9% | viability, T/C (second compound 3.16 µM, first compound 0.316 µM) 91.4% | viability, T/C (second compound 3.16 µM, first compound 1 µM) 92.6% | viability, T/C (second compound 3.16 µM, first compound 3.16 µM) 80.1% | viability, T/C (second compound 3.16 µM, first compound 10 µM) 74.8% | viability, T/C [14] 131% | viability, T/C [15] 117% | viability, T/C (second compound 10 µM, first compound 0.316 µM) 95.6% | viability, T/C (second compound 10 µM, first compound 1 µM) 110% | viability, T/C (second compound 10 µM, first compound 3.16 µM) 102% | viability, T/C (second compound 10 µM, first compound 10 µM) 100%
